According to patent publication US20230113944A1, “COMPOSITIONS AND METHODS FOR THE TREATMENT OF NEURODEGENERATIVE DISEASES” (priority 2020, published 2023):
Entries after “also recorded” stand apart in the source; their conditions may differ. Like-named read-outs stand apart in the source and are kept apart here.

Assays:
[1] = Parallel artificial membrane permeability (IAM column) prediction of CNS permeability; assay type: in vitro ADME
Protocol: To predict the potential for brain permeability, a Regis Technologies analytical column connected to an Agilent HPLC system (Infinity 1260 quaternary pump and multiple wavelength detector; 1200 autosampler) was used. An IAM.PC.DD column was (4.6 mm i.d.×10 cm, particle size 5 μm; pore size 300 Å) conditioned with 20 column volumes of mobile phase or until a stable line was achieved. A mobile phase with a consistent flow rate of 1 mL/min was used comprising 100 mM Na2PO4 (solvent A) and acetonitrile (solvent B); compounds were eluted using a gradient (min/% B: 0/30, 10/60, 11/30, 15/30). Detector settings were 220, 250 and 280 nm and acquisition time was 15 min. The autosampler injected 10 μL of compound at 2 mM final, diluted from 10 mM in DMSO in 70:30 (water:acetonitrile). After elution, compound retention and void volume times were obtained from the chromatogram. The IAM capacity factor: (KIAM) was calculated using the equation: […]
where tr is the retention time of a compound and t0 is the void volume time of the column. To predict CNS permeability, we used the correlation described by the formula below.

[2] = molecular target: human serum albumin (HSA) (Homo sapiens, UniProt P02768); assay: Binding to human serum albumin (HSA); details: for fraction unbound: human, human serum albumin
human serum albumin (HSA), sequence (P02768 25-609): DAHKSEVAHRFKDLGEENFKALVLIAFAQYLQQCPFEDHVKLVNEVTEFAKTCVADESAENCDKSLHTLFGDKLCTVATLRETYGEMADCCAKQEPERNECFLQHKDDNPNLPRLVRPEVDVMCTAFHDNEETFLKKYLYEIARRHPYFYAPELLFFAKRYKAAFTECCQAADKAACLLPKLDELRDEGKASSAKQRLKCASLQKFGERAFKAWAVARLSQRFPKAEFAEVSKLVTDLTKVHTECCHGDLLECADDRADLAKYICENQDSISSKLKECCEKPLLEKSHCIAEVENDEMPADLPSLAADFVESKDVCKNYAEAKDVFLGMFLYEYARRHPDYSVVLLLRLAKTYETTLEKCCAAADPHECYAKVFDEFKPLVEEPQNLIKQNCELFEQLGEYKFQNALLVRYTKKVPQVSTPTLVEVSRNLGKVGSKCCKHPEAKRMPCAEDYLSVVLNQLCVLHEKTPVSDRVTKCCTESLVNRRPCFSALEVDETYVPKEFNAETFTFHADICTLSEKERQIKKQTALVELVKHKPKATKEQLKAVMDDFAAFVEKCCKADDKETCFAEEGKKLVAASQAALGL

[3] = molecular target: T1, Human AChE (Homo sapiens, UniProt P22303); assay: biochemical
T1 construct: purchased Sigma
T1 sequence (P22303 32-614): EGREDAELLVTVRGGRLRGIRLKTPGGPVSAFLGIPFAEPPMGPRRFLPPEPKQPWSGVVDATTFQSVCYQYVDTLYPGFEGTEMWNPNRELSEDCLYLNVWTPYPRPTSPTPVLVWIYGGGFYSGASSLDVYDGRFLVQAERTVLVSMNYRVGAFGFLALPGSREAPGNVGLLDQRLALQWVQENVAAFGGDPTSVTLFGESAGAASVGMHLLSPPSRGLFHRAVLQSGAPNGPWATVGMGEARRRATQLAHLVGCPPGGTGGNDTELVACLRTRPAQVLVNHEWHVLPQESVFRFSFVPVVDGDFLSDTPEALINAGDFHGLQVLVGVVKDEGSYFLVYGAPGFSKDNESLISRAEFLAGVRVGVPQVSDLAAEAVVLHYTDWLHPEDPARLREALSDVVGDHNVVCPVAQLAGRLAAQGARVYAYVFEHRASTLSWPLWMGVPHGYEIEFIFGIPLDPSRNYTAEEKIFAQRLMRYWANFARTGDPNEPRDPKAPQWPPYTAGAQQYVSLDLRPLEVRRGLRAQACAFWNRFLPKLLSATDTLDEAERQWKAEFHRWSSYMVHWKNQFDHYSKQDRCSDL
Protocol: This acetylcholinesterase (AChE) assay is based on an Amplex Red assay kit (Thermo Fisher A12217). Human AChE (Sigma) was used. Briefly, 5 μL of compounds at the desired concentration were loaded into wells of a 384-well plate. Then, 5 μl of human AChE (30 mU/mL) was loaded into each well, followed by the addition of 10 μL of the working solution which contains 400 μM Amplex Red reagent, 2 U/mL HRP, 0.2 U/mL choline oxidase, and 100 μM acetylcholine. The reaction was monitored for 60 minutes and read at 530/590 nm. AChE IC50 was determined by plotting AChE activity as a percentage of DMSO control using GraphPad Prism software.

[4] = molecular target: T2, human nSMase2 (Homo sapiens, UniProt Q9NY59); assay: biochemical; assay type: biochemical
T2 construct: expressed in transfected cells; host or cells: HEK293T
T2 sequence (Q9NY59 1-655): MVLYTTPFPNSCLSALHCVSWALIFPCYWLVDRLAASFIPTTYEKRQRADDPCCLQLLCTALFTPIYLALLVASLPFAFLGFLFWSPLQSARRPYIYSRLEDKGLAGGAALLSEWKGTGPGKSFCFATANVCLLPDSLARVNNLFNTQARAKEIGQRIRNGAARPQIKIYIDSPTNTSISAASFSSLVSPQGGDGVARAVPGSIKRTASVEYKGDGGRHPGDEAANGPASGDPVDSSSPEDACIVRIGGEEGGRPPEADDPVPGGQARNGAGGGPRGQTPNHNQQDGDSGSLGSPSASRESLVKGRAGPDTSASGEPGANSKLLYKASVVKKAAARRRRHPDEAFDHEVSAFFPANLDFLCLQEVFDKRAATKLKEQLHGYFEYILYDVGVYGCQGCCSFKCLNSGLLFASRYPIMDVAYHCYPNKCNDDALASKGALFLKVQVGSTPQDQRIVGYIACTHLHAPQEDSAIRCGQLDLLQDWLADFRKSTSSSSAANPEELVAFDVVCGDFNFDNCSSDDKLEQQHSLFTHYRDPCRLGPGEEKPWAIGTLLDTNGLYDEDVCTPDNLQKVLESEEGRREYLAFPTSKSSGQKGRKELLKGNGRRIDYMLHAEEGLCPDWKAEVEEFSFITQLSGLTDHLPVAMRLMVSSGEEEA
Protocol: To evaluate nSMase2 inhibitory activity of tested compounds, cell lysates from HEK293T cells over-expressing human nSMase2 were used as the source of the nSMase2 enzyme. The Amplex Red Sphingomyelinase activity assay was performed according to previously a described protocol^1. Confluent cells were washed with PBS and harvested with lysis buffer [100 mM Tris-HCl pH 7.5, 100 mM sucrose, 100 μM PMSF, 1× protease inhibitor cocktail] using a cell scraper, and then sonicated 3 times on ice for 10 sec and centrifuged at 10,000×g for 10 min at 4° C. to remove remaining cell debris. An initial screening of a compound library was performed using 50 μM compound concentrations. In secondary testing, selected compounds were analyzed at multiple compound concentrations and plotted as a percentage of DMSO control; dose-response curves were generated to determine IC50s using GraphPad Prism software (GraphPad Software, La Jolla Calif.). […] Activity of the enzyme in the presence of the different concentrations of the inhibitors was plotted against substrate concentration and the maximal rate of the enzymatic reaction (Vmax) and Michaelis constant were calculated using GraphPad Prism.

| Structure (SMILES) | IC50 ([3]; AChE activity) [µM] | IC50 ([4]; IC50 (nSMase2) Groups: A-D) [µM] | also measured |
| --- | --- | --- | --- |
| Cc1cc(C)cc(NC(=O)Oc2ccc3c(c2)[C@]2(C)CCO[C@@H]2N3C)c1 [Compound 6] | – | – | CNS perm (PAMPA) [1]: 3.1; fraction unbound [2]: 0.04; IC50 ([3]; IC50 AChE): 0.2 µM; IC50 ([4]; IC50 nSMase2): 3.6 µM |
| CN1c2ccc(OC(=O)Nc3ccc(OC(F)(F)F)cc3)cc2[C@]2(C)CCO[C@H]12 [drawing 35] | > 5 | 10 to 50 | – |
| COc1cc(NC(=O)Oc2ccc3c(c2)[C@]2(C)CCO[C@@H]2N3C)cc(OC)c1 [Compound 7] | – | – | CNS perm (PAMPA) [1]: 1.8; fraction unbound [2]: 0.09; IC50 ([3]; IC50 AChE): 0.3 µM; IC50 ([4]; IC50 nSMase2): 2 µM |
| C[C@@]12CCO[C@@H]1Nc1ccc(Br)nc12 | – | > 50 | – |
| COc1ccc(NC(=O)Oc2ccc3c(c2)[C@]2(C)CCO[C@@H]2N3C)cc1 [drawing 33] | 2.5 to 5 | 1 to 10 | – |
| CN1c2ccc(OC(=O)Nc3cncc(F)c3)cc2[C@]2(C)CCO[C@H]12 [drawing 63] | > 5 | < 1 | – |
| CN1c2ccc(O)nc2[C@]2(C)CCO[C@H]12 | – | 1 to 10 | – |
| CN1c2ccc(OC(=O)NC3CCCCC3)cc2[C@]2(C)CCO[C@H]12 [Compound 5] | – | – | CNS perm (PAMPA) [1]: 2.8; fraction unbound [2]: 0.17; IC50 ([3]; IC50 AChE): 0.3 µM; IC50 ([4]; IC50 nSMase2): 3.4 µM |
| C[C@@]12CCO[C@@H]1Nc1ccc(O)nc12 | – | > 50 | – |
| CN1c2ccc(OC(=O)Nc3ccc(OC(F)(F)F)cc3)cc2[C@]2(C)CCO[C@H]12 [Compound 4] | – | – | CNS perm (PAMPA) [1]: 0.7; fraction unbound [2]: 0.33; IC50 ([3]; IC50 AChE): > 5 µM; IC50 ([4]; IC50 nSMase2): 2.7 µM |
| C=CC[C@@]12CCN(S(=O)(=O)c3ccc(C)cc3)[C@@H]1Nc1ccc(OC)nc12 | – | > 50 | – |
| CCN(C)C(=O)Oc1ccc2c(c1)[C@]1(C)CCO[C@@H]1N2C [Compound 16] | – | – | IC50 ([3]; IC50 AChE, Table 2, unit not in table, μM): > 5 µM |
| C[C@@]12CCO[C@@H]1Nc1ccc(OCc3ccccc3)nc12 | – | > 50 | – |
| CC[C@@H]1C[C@@]2(C)c3cc(OC(=O)Nc4ccccc4)ccc3N(C)[C@H]2O1 [Compound 10] | – | – | CNS perm (PAMPA) [1]: 3.2; fraction unbound [2]: 0.05; IC50 ([3]; IC50 AChE): 3.7 µM |
| C=CC[C@@]12CCO[C@@H]1Nc1ccc(OC)nc12 | – | > 50 | – |
| CN1c2ccc(OC(=O)Nc3ccccn3)cc2[C@]2(C)CCO[C@H]12 [Compound 12] | – | – | CNS perm (PAMPA) [1]: 1.9; degree of binding to human serum albumin (HSA) [2]: low degree of binding; fraction unbound [2]: 0.28; IC50 ([3]; IC50 AChE): > 5 µM; IC50 ([4]; IC50 nSMase2): 0.8 µM |
| COc1cc(NC(=O)Oc2ccc3c(c2)[C@]2(C)CCO[C@@H]2N3C)cc(OC)c1 [drawing 38] | < 0.5 | 1 to 10 | – |
| COC(=O)N1CCC[C@@]2(C)c3nc(OC)ccc3N[C@@H]12 | – | > 50 | – |
| CCN(C)C(=O)Oc1ccc2c(c1)[C@]1(C)CCO[C@@H]1N2C [drawing 65] | > 5 | – | – |
| C[C@@]12CCO[C@@H]1Nc1cccnc12 | – | > 50 | – |
| COc1ccc2c(n1)[C@]1(C)CCCO[C@@H]1N2 | – | > 50 | – |
| CC[C@H]1C[C@@]2(C)c3cc(OC(=O)Nc4ccccc4)ccc3N(C)[C@H]2O1 [drawing 42] | 2.5 to 5 | 1 to 10 | – |
| CN1c2ccc(OC(=O)Nc3ccccc3)nc2[C@]2(C)CCO[C@H]12 | – | 1 to 10 | – |
| CN1c2ccc(OC(=O)Nc3ccncc3)cc2[C@]2(C)CCO[C@H]12 (racemic) | > 5 | – | – |
| CN1c2ccc(OC(=O)Nc3cncc(F)c3)cc2[C@]2(C)CCO[C@H]12 [Compound 14] | – | – | CNS perm (PAMPA) [1]: 2; fraction unbound [2]: 0.21; IC50 ([3]; IC50 AChE): > 5 µM; IC50 ([4]; IC50 nSMase2): 0.9 µM |

| Structure (SMILES) | IC50 ([3]; AChE activity) [µM] | IC50 ([4]; IC50 (nSMase2) Groups: A-D) [µM] | also measured |
| --- | --- | --- | --- |
| CN1c2ccc(OC(=O)NC3CCCCC3)cc2[C@]2(C)CCO[C@H]12 [drawing 36] | < 0.5 | 1 to 10 | – |
| COc1nccc2c1N[C@H]1OCC[C@@]21C | – | > 50 | – |
| C[C@@]12CCO[C@@H]1Nc1ncccc12 | – | > 50 | – |
| COc1cccc(NC(=O)Oc2ccc3c(c2)[C@]2(C)CCO[C@@H]2N3C)c1 [Compound 3] | – | – | CNS perm (PAMPA) [1]: 2.3; fraction unbound [2]: 0.1; IC50 ([3]; IC50 AChE): 0.1 µM |
| COc1ccc2c(n1)[C@]1(C)CCN(S(=O)(=O)c3ccc(C)cc3)[C@@H]1N2 | – | 10 to 50 | – |
| Cc1cc(C)cc(NC(=O)Oc2ccc3c(c2)[C@]2(C)CCO[C@@H]2N3C)c1 [drawing 37] | < 0.5 | 1 to 10 | – |
| CN1c2ccc(OC(=O)Nc3ccc(C(F)(F)F)cc3)cc2[C@]2(C)CCO[C@H]12 [drawing 64] | > 5 | 1 to 10 | – |
| CN1CC[C@@]2(C)c3cc(OC(=O)Nc4ccccc4)ccc3N(C)[C@@H]12 [phenserine, reference compound] | – | – | IC50 ([4]; nSMase2 IC50): > 50 µM |
| CN1c2ccc(OC(=O)Nc3ccncc3F)cc2[C@]2(C)CCO[C@H]12 [drawing 62] | > 5 | < 1 | – |
| CN1c2ccc(OC(=O)Nc3ccccc3)cc2[C@]2(C)CCO[C@H]12 [Compound 1, phensvenine] | – | – | CNS perm (PAMPA) [1]: 3.2; fraction unbound [2]: 0.12; IC50 ([3]; AChE IC50): 0.5 µM; nSMase2 inhibitory activity [4]: has nSMase2 inhibitory activity; also recorded: weak nSMase2 inhibition; IC50 ([4]; IC50 nSMase2): > 1 µM |
| CN1c2ccc(OCc3ccccc3)nc2[C@]2(C)CCO[C@H]12 | – | > 50 | – |
| CC[C@H]1C[C@@]2(C)c3cc(OC(=O)Nc4ccccc4)ccc3N(C)[C@H]2O1 [Compound 9] | – | – | CNS perm (PAMPA) [1]: 3; fraction unbound [2]: 0.07; IC50 ([3]; IC50 AChE): 2.5 µM; IC50 ([4]; IC50 nSMase2): > 5 µM |
| COc1ccc2c(n1)[C@]1(C)CCO[C@@H]1N2 | – | > 50 | – |
| COc1ccc(NC(=O)Oc2ccc3c(c2)[C@]2(C)CCO[C@@H]2N3C)cc1 [Compound 2] | – | – | CNS perm (PAMPA) [1]: 2; fraction unbound [2]: 0.15; IC50 ([3]; IC50 AChE): 3.6 µM; IC50 ([4]; IC50 nSMase2): 0.7 µM |
| COc1ccc2c(n1)[C@]1(c3ccccc3)CCO[C@@H]1N2 | – | > 50 | – |
| CCN1c2ccc(OCc3ccccc3)nc2[C@]2(C)CCO[C@H]12 | – | > 50 | – |
| COc1cccc(NC(=O)Oc2ccc3c(c2)[C@]2(C)CCO[C@@H]2N3C)c1 [drawing 34] | < 0.5 | 1 to 10 | – |
| CC[C@@H]1C[C@@]2(C)c3cc(OC(=O)Nc4ccccc4)ccc3N(C)[C@H]2O1 [drawing 43] | 2.5 to 5 | 1 to 10 | – |
| CCN1c2ccc(O)nc2[C@]2(C)CCO[C@H]12 | – | 1 to 10 | – |
| CN1c2ccc(OC(=O)Nc3ccccc3)cc2[C@]2(C)CCO[C@H]12 [drawing 32] | < 0.5 | 1 to 10 | – |
| C[C@@]12CCO[C@@H]1Nc1ccc(Cl)nc12 | – | > 50 | – |
| COc1ccnc2c1N[C@H]1OCC[C@@]21C | – | > 50 | – |
| COc1cnc2c(c1)[C@]1(C)CCO[C@@H]1N2 | – | > 50 | – |
| CN1c2ccc(OC(=O)Nc3ccc(C(F)(F)F)cc3)cc2[C@]2(C)CCO[C@H]12 [Compound 15] | – | – | CNS perm (PAMPA) ([1]; PAMPA, 2 mM): 2.2; fraction unbound [2]: 0.07; IC50 ([3]; IC50 AChE): > 5 µM |
| CN1c2ccc(OC(=O)Nc3ccccn3)cc2[C@]2(C)CCO[C@H]12 [drawing 45] | > 5 | < 1 | – |
